# Laboratory results published in ChEMBL document CHEMBL1201862, “PubChem BioAssay data set” (2004).
# Calls of active or inactive are those of the source.
# Legend:
# [1] = blockers of bursicon-stimulated LGR2 cAMP reporter – cell-based, HEK293, CRE-luciferase reporter, cherry pick, set 2, dose response (AID 743343); format: functional;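 further: transfected cells were stimulated with diluted bursicon conditioned medium after compound addition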
# [2] = blockade of melanocortin 4 receptor signaling – cell-based, plate reader, cherry pick, counter-screen for LGR2 antagonist project, dose response (AID 743444); format: functional;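 further: transfected HEK 293 cells stimulated with alpha-MSH peptide; potency of inhibitors of the alpha-MSH evoked signal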
# [3] = target: Cytochrome P450 2C19 (Homo sapiens, UniProt P33261); experiment: Cytochrome panel assay with activity outcomes. Panel member name: p450-cyp2c19 Compounds with AC50 equal or less than 10 uM are considered active; format: functional; conditions: read-out: AC50
# [4] = target: T1, Small ubiquitin-related modifier 1 (Homo sapiens, UniProt P63165); experiment: SUMO1 protein interaction blockers, potency – biochemical, fluorescence polarization, uHTS hits, dose response (AID 624382); format: functional; conditions: read-out: IC50_Mean
# [5] = target: T1, Small ubiquitin-related modifier 1; experiment: SUMO1 protein-protein binding blockers, potency – biochemical, FRET, dose response (AID 624383); format: functional; conditions: read-out: IC50_Mean
# [6] = target: Cytochrome P450 2C9 (Homo sapiens, UniProt P11712)
# [7] = target: T2, Leucine aminopeptidase (Plasmodium falciparum 3D7, UniProt Q8IL11); experiment: P. falciparum M17LAP inhibitors, primary screen, biochemical, fluorogenic H-Leu-NHMec substrate, 1536-well (AID 1619); format: functional
# T2 sequence (Q8IL11 whole entry): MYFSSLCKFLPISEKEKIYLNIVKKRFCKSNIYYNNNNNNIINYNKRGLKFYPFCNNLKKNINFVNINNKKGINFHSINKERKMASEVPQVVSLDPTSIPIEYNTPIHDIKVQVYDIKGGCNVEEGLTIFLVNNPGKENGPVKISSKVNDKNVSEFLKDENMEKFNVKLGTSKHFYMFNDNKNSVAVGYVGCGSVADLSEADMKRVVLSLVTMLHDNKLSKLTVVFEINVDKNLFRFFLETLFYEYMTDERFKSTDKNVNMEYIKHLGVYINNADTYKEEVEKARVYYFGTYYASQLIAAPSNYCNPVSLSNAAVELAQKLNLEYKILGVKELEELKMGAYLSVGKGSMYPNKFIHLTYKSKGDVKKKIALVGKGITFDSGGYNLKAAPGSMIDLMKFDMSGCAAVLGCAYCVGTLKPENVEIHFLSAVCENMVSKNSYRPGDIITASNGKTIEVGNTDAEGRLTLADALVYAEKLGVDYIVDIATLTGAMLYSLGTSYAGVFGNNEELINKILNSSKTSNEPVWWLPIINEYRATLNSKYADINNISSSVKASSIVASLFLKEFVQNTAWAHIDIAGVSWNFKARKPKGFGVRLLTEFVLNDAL
# [8] = target: T3, Microphthalmia-associated transcription factor (Homo sapiens, UniProt O75030); experiment: reducers of TRPM1 reporter luminescence, concentration series – cell-based, SK-MEL-5, cherry-picked, set 3, MITF inhibitor project, dose response (AID 493073); format: functional;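 further: SK-MEL-5 melanoma cells with luciferase driven by the MITF target TRPM1 promoter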
# T3 sequence (O75030 whole entry): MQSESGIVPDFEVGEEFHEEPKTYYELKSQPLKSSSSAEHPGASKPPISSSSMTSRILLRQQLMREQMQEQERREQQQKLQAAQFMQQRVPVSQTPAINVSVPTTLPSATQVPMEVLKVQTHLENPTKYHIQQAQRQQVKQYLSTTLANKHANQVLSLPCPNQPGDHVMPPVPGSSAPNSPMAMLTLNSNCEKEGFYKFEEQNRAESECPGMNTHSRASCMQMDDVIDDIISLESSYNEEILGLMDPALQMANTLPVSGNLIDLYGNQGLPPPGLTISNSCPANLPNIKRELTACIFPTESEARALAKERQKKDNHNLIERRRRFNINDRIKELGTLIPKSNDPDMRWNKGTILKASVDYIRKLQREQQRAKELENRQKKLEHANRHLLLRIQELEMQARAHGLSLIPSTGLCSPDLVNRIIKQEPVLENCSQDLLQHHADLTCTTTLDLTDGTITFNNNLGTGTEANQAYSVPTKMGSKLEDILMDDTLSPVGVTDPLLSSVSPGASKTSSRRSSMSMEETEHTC
# [9] = reduced cellular PGC1a acetyl-lysine signal – cell-based, cherry-picked samples, dose response (AID 720514); format: functional;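 further: potency may reflect raised or lowered acetylation signal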
# [10] = target: Cytochrome P450 2D6 (Homo sapiens, UniProt P10635);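 further: CYP2D6 member of a cytochrome P450 panel assay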
# [11] = target: Cytochrome P450 3A4 (Homo sapiens, UniProt P08684);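 further: CYP3A4 tested as one member of a cytochrome P450 panel screen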
# [12] = target: T4, RNA-binding protein pos-1 (Caenorhabditis elegans, UniProt G5EF15); experiment: disruptors of C. elegans POS-1 RNA interaction – biochemical, fluorescence polarization, dose response (AID 1964);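 further: purified POS-1 fused to maltose binding protein made in E. coli; potency of compounds blocking POS-1 binding to fluorescent RNA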
# T4 sequence (G5EF15 whole entry): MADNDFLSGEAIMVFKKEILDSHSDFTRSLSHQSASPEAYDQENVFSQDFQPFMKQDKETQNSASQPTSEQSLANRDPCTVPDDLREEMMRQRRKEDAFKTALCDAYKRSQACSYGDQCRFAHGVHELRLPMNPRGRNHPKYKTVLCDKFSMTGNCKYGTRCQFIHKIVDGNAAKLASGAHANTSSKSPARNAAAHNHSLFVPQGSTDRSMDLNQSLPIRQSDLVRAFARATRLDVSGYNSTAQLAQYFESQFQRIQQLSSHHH
# [13] = target: T5, Zinc finger protein mex-5 (Caenorhabditis elegans, UniProt Q9XUB2); experiment: potency of MEX-5 RNA-binding blockers – biochemical, C. elegans, fluorescence polarization, dose response (AID 1960)
# T5 sequence (Q9XUB2 whole entry): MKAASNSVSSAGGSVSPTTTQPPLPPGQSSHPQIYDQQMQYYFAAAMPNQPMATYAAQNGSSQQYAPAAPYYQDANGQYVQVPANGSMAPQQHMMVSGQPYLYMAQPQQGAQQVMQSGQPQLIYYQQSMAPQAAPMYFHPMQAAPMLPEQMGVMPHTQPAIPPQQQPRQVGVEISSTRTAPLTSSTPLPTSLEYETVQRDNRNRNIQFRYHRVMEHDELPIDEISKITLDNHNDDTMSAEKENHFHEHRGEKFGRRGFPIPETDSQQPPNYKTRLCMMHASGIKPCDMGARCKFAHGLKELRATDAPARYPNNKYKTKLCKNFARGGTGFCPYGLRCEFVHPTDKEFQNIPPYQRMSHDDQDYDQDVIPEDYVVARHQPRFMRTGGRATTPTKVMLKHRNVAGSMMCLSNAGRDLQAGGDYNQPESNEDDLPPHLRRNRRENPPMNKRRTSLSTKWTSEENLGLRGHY
# [14] = target: Large T antigen (Simian virus 40, UniProt P03070); format: functional, Betapolyomavirus macacae;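 further: Confirmatory-stage PubChem screen for compounds that inhibit SV40 T antigen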
# [15] = target: T6, Replicative DNA helicase DnaB (Mycobacterium tuberculosis, UniProt P9WMR3); experiment: DnaB intein splicing inhibitors, dose response, biochemical, cell-free fluorescence (AID 449749); format: functional
# T6 sequence (P9WMR3 whole entry): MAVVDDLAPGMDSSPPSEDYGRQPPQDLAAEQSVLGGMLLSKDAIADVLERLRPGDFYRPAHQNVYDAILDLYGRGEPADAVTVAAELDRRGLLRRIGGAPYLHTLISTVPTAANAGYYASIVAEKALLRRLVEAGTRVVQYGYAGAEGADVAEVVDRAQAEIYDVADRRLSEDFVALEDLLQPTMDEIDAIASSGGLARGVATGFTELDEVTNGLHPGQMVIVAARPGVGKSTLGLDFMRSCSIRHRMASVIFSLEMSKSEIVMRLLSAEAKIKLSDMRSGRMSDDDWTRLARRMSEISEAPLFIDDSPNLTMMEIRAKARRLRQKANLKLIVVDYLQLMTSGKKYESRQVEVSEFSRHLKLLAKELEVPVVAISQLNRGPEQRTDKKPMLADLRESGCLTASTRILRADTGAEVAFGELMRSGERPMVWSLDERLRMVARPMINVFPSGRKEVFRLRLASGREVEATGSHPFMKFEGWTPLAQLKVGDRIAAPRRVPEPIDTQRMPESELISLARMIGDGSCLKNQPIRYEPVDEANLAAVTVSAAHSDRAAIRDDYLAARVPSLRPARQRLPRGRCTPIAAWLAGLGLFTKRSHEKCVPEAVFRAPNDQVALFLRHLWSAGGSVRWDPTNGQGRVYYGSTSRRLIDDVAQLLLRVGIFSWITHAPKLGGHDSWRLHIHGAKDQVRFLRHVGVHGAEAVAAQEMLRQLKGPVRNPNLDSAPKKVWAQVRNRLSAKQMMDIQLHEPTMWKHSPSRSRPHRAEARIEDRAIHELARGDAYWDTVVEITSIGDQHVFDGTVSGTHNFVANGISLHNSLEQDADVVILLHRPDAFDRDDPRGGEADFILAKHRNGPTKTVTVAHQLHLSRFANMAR
# [16] = target: T7, Protein RecA (Mycobacterium tuberculosis, UniProt P9WHJ3); experiment: Fluorescence Cell-Free Homogeneous Dose Retest to Identify Inhibitors of RecA-Intein Splicing Activity. [Related pubchem assays (depositor defined):AID2097, AID2223, AID489010, AID492950]; format: functional
# T7 sequence (P9WHJ3 whole entry): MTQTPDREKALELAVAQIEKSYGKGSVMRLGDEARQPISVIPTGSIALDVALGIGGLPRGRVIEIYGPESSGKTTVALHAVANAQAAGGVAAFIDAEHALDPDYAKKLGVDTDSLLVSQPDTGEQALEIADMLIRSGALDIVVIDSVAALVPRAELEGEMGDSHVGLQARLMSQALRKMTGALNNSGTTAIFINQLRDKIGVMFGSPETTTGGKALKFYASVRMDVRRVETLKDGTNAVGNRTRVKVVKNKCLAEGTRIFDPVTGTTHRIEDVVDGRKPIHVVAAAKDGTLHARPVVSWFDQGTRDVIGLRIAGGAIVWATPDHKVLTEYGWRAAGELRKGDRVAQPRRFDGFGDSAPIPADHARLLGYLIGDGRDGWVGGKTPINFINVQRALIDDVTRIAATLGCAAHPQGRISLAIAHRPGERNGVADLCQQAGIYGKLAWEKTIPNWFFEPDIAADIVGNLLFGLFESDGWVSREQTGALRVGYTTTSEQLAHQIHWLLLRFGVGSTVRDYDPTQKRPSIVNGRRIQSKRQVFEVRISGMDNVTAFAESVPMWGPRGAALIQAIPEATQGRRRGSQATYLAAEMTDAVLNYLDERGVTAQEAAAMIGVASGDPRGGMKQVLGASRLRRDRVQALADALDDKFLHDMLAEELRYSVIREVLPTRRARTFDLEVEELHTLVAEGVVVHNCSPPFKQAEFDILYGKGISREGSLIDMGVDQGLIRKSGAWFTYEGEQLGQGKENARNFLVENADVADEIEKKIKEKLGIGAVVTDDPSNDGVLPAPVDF
# T1 sequence (P63165 whole entry): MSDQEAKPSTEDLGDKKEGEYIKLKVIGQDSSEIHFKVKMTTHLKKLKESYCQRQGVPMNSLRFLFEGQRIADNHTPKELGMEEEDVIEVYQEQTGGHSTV
# Chain of Cytochrome P450 2C9 (P11712 whole entry): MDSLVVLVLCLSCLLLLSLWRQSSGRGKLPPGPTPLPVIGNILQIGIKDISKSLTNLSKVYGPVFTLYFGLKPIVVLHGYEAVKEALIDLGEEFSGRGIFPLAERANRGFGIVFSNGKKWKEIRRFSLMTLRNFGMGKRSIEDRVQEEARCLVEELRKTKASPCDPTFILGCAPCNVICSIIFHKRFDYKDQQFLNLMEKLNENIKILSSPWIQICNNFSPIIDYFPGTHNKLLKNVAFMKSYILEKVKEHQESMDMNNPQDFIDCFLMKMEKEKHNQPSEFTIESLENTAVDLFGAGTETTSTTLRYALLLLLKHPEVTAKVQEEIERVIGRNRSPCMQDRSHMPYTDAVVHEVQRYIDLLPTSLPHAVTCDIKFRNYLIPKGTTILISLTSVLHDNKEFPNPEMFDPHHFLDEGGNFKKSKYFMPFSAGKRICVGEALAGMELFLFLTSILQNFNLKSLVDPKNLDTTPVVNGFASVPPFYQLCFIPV
# Chain of Cytochrome P450 3A4 (P08684 whole entry, the tested form may be a part): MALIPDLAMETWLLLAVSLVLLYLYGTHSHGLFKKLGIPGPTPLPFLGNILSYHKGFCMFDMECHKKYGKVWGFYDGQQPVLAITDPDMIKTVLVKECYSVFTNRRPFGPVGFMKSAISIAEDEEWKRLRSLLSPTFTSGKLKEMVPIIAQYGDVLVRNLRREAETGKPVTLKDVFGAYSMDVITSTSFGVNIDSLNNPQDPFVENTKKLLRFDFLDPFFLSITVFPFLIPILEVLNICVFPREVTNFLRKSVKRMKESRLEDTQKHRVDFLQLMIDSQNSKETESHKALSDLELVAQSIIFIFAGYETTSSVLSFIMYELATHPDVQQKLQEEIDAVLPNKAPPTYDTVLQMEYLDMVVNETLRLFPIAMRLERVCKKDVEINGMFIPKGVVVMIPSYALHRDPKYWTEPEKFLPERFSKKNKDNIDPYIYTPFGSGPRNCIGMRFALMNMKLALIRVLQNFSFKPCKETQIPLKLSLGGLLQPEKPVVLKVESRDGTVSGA
# Chain of Cytochrome P450 2D6 (P10635 whole entry): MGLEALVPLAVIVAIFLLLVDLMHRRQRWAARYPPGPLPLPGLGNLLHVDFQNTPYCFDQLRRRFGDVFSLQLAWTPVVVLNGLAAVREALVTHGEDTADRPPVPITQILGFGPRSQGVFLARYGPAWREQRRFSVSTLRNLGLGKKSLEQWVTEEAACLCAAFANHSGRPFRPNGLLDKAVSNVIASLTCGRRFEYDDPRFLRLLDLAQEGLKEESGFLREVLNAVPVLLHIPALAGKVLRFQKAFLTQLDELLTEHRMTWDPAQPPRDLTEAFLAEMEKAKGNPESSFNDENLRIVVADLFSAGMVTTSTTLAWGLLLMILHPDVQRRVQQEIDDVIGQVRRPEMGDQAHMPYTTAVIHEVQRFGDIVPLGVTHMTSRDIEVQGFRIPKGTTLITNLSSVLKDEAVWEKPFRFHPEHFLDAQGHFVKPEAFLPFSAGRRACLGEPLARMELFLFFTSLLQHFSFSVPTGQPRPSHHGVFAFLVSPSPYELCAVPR
# Chain of Large T antigen (P03070 whole entry): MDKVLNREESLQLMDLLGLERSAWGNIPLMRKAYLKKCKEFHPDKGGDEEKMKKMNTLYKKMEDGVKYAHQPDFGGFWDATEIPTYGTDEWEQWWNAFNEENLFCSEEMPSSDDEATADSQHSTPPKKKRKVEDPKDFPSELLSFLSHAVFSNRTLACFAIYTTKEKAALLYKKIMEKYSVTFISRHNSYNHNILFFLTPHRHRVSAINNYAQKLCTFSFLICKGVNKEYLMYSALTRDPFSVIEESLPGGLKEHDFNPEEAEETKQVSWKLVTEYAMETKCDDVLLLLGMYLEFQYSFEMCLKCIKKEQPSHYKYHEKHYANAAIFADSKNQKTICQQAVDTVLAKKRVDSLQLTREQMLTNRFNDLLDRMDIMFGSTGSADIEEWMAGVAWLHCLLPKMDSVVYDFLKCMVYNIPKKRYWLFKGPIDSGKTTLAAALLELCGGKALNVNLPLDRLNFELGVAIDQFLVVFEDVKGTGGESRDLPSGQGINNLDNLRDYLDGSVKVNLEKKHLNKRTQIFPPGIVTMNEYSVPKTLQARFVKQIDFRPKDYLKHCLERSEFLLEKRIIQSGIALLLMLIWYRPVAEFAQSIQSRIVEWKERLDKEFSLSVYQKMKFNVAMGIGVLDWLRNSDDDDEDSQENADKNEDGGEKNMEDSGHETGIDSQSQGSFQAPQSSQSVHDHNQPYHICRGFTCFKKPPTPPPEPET
# Chain of Cytochrome P450 2C19 (P33261 whole entry): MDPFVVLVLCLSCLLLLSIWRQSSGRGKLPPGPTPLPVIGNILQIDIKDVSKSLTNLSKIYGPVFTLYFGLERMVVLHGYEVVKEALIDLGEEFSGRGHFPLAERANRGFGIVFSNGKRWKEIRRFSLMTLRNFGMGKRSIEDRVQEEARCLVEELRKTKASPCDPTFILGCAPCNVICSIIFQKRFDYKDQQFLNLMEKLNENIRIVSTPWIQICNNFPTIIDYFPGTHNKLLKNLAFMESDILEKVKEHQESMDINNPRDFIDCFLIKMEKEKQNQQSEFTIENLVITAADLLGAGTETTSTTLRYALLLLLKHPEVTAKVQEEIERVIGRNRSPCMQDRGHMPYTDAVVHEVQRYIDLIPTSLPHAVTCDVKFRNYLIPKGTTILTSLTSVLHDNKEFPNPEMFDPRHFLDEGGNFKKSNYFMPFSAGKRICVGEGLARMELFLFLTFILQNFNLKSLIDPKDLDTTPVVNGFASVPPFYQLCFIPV
structure (smiles),measurement,setting,value
Cc1cc(C(=O)Nc2ccc(N3CCCCC3)cc2)no1,AC50,[1],13.3 µM (active)
same,AC50,[2],13.1 µM (active)
O=C(N/N=C/c1ccncc1)c1cc2c(ccc3ccccc32)o1,AC50,[3],8.91 µM (inconclusive)
same,IC50,[4],> 66.6 µM (inactive)
same,IC50,[5],100 µM (inactive)
same,AC50,[6],0.794 µM (inconclusive)
CC(CC(=O)OCC(=O)Nc1ccc2[nH]c(O)nc2c1)c1ccccc1 (stereo not given),IC50,[4],> 66.6 µM (inactive)
same,IC50,[5],21 µM (inactive)
COc1cccc2c(=O)n(CC(=O)N3CCCCCC3)ccc12,IC50,[7],17.6 µM (active)
O=C(NCc1ccccc1)C(=O)Nc1cccc(C(=O)O)c1,AC50,[8],4.85 µM (active)
O=C(O)C1CCCCC1C(=O)Nc1cccc(Cl)c1Cl (stereo not given),IC50,[7],13.5 µM (active)
CCn1c(C)c(C)c2cc(C(=O)NCCN3CCOCC3)ccc21,AC50,[9],25.5 µM (active)
COc1cc(SC)ccc1C(=O)Nc1ccc(Br)cn1,AC50,[8],7.36 µM (active)
C[C@@H]1CN([C@@H](C)CO)S(=O)(=O)c2ccc(C#CC3CCCCC3)cc2O[C@H]1CN(C)Cc1cccnc1,AC50,[9],15.1 µM (active)
COc1ccccc1NC(=O)CC1COc2ccccc2O1 (stereo not given),IC50,[7],5.29 µM (active)
same,AC50,[10],12.6 µM (inconclusive)
same,AC50,[11],14.1 µM (inconclusive)
same,AC50,[6],5.62 µM (inconclusive)
CCC(CO)Oc1cc(NC(=O)c2ccccc2F)c2ncn(C(C)C)c2c1 (stereo not given),IC50,[4],> 66.6 µM (inactive)
same,IC50,[5],12.2 µM (active)
COc1cc(C2C(C#N)=C(N)Oc3[nH]nc(-c4cccnc4)c32)cc(Br)c1O (stereo not given),EC50,[12],> 300 µM (not active)
same,EC50,[13],> 300 µM (not active)
same,IC50,[14],57 µM (active)
same,AC50,[15],5.65 µM (active)
same,EC50,[16],2.06 µM (active)
CC(=O)Nc1ccc(S(=O)(=O)N2CCn3cccc3C2C)cc1 (stereo not given),AC50,[8],28.6 µM (active)
O=C(O)C1CCCCC1C(=O)Nc1ccc2c(c1)OCCO2 (stereo not given),IC50,[7],32.9 µM (active)
CCC(=O)Nc1cc2nn(-c3ccc(C)cc3)nc2cc1C,AC50,[8],4.15 µM (active)
O=C(Nc1c(C(=O)O)oc2ccc(Br)cc12)c1ccccc1,IC50,[7],5.42 µM (active)
COc1cc(CN2C[C@@H]3N[C@H](C2)[C@H]3c2ccc(-c3cccc(OC)c3)cc2)cc(OC)c1,AC50,[9],24.5 µM (active)
